Assays:
[1] = system: MX-1 Human Mammary Xenograft; experiment: Experimental anticancer activity in murine in vivo systems (Tumor Regression); details: MX-1 (Tumor Regression)
SK-MEL-5 = experiment: NCI in vitro mini panel, human cancer cell line growth inhibition; type: cell-based; details: Melanoma SK-MEL-5, 48 hrs
Method: (§1) ED50 (P388) and GI50 (HTCL) identify the drug dose which reduces the percent tumor/cell growth to 50%. There is no mathematical difference between ED50 and GI50, both of which are calculated using the same formula. The only difference is historical usage.
(§2) TGI, means "Total Growth Inhibition", and identifies the drug dose needed to yield zero percent growth, i.e. there are just as many cells at the end of the experiment as were present at the beginning. Whether just as many cells were killed as were produced (steady state), or no growth occurred (total inhibition) cannot be distinguished.
(§3) LC50, means "Lethal Concentration 50%", and identifies the drug concentration which reduces to one-half of the cells originally present at the beginning of the experiment.
(§4) Each drug is tested at five (5) doses: 100--10-1-0.1--0.01 μg/mL. Percent Growths are calculated for each dose. The two (or three) doses with growth values above, below, (or near to) 50% growth are used to calculate the ED50 /GI50 values using a linear regression computation. If no dose yields a growth value under 50%, the results are expressed as: ED50 >(highest dose). If no dose yields growth higher than 50% growth, then ED50 <(lowest dose). Similar calculations are performed for the TGI at 0% growth, and at -50% growth for the LC50.
(§5) At the start of each experiment, cells from the in vitro cell cultures are inoculated into the appropriate tubes or microtiter plates. One set of control tubes/plates is immediately counted to determine the number of cells at the start of the experiment. This is the "baseline count", or "Tzero reading". At the end of the experiment (48 hrs later), a second set of control tubes/plates is analyzed to determine the "Control Growth" value. The growth (or death) of cells relative to the initial quantity of cells is used to define the "Percent of Growth."
(§6) Similarly, the compounds disclosed herein have also been tested against an NCI in vitro mini panel. For each of six cell lines GI50, TGI, and LC50 amounts were calculated for each compound. Each compound was also tested against the PS-388 cell line and for this test an ED50 was calculated.
(§7) The protocols followed, for the NCI minipanel are, except for the number of cell lines, those established by M. R. Boyd Ph.D., and well known to those of ordinary skill in the art. The procedure followed for the test against PS-388 Leukemia is the same that was followed in the superseded NCI P-388 screening test, which is also well known to those having ordinary skill in the art.

SF-295 = experiment: as above; type: cell-based; details: CNS SF-295, 48 hrs
Method: as §1, §2, §3, §4, §5, §6, §7

NCI-H460 = experiment: as above; type: cell-based; details: Lung-NSC NCI-H460, 48 hrs
Method: as §1, §2, §3, §4, §5, §6, §7

OVCAR-3 = experiment: as above; type: cell-based; details: Ovarian OVCAR-3, 48 hrs
Method: as §1, §2, §3, §4, §5, §6, §7

KM20L2 = experiment: as above; type: cell-based; details: Colon KM20L2, 48 hrs
Method: as §1, §2, §3, §4, §5, §6, §7

A498 = experiment: as above; type: cell-based; details: Renal A498, 48 hrs
Method: as §1, §2, §3, §4, §5, §6, §7

PS-388 = PS-388 mouse leukemia cell line test; type: cell-based; details: Mouse Leukemia PS-388
Method: as §1, §4, §5, §6, §7

Row | Substance | GI-50 (SK-MEL-5) [µg/mL] | LC-50 (SK-MEL-5) [µg/mL] | TGI (SK-MEL-5) [µg/mL] | GI-50 (SF-295) [µg/mL] | LC-50 (SF-295) [µg/mL] | TGI (SF-295) [µg/mL] | GI-50 (NCI-H460) [µg/mL] | LC-50 (NCI-H460) [µg/mL] | TGI (NCI-H460) [µg/mL] | GI-50 (OVCAR-3) [µg/mL] | LC-50 (OVCAR-3) [µg/mL] | TGI (OVCAR-3) [µg/mL] | GI-50 (KM20L2) [µg/mL] | LC-50 (KM20L2) [µg/mL] | TGI (KM20L2) [µg/mL] | GI-50 (A498) [µg/mL] | LC-50 (A498) [µg/mL] | TGI (A498) [µg/mL] | ED-50 (PS-388) [µg/mL] | further results
1 | Dolastatin 10 |  |  |  |  |  |  |  |  |  |  |  |  |  |  |  |  |  |  |  | T/C ([1]; 6.25 μg/kg): 69; T/C ([1]; 13 μg/kg): 61; T/C ([1]; 26 μg/kg): 50; T/C ([1]; 52 μg/kg): 14
2 | L-Dolavalyl-L-Leucyl-N-methyl-(3R,4S,5S)-Dolaisoleuinyl-(2R,3R,4S)-Dolaproinyl-N-2(3-chlorophenyl) ethylamide [10c] | 0.0025 | > 0.01 | > 0.01 | 0.0035 | > 0.01 | > 0.01 | 0.0029 | > 0.01 | 0.0084 | 0.0019 | > 0.01 | > 0.01 | 0.0020 | > 0.01 | > 0.01 | 0.0038 | > 0.01 | > 0.01 | 0.00314 | 
3 | L-Dolavalyl-L-Leucyl-N-methyl-(3R,4S,5S)-Dolaisoleuinyl-(2R,3R,4S)-Dolaproinyl-N-2(4-chlorophenyl) ethylamide [10d] | 0.00091 | > 1 | > 1 | 0.0017 | > 1 | 0.1 | 0.0024 | > 1 | 0.0097 | 0.00029 | > 1 | 0.012 | 0.00011 | > 1 | 0.011 | 0.0059 | > 1 | 0.29 | 0.00586 | 

Reference: patent publication US5530097A, “Human cancer inhibitory peptide amides” (Arizona Board of Regents acting on behalf of Arizona State …, priority 1994, dated 1996)
